Values quoted from earlier work, collected in patent US8911781B2, “Process of manufacture of novel drug delivery system: multilayer tablet composition of thiazolidinedione and biguanides” (Inventia Healthcare Private Limited, priority 2002, dated 2014).
Counter-ions that a name gives are not always drawn.

Assays:
[1] = at steady state concentrations; parent drug
[2] = after ingestion

plasma elimination half-life (t½) [1] [h] | time to complete gastro-intestinal absorption [2] [h] | Structure (SMILES)
3.3 to 4.9 | – | CCc1ccc(CCOc2ccc(CC3SC(=O)NC3=O)cc2)nc1 (centres unmarked) [Pioglitazone HCl]
– | ≤ 6 | CN(C)C(=N)N=C(N)N [Metformin HCl]
